Laboratory results: PMC11676817, “Antiproliferative and Morphological Analysis Triggered by Drugs Contained in the Medicines for Malaria Venture COVID-Box Against Toxoplasma gondii Tachyzoites” (Microorganisms, 2024)
Several values for one entry are separate records, joined by “and”; a condition that tells them apart may be missing. Equal entries are not always repeated. Where two headings read alike, the source gives them in different places.

Assays:
[1] = cited from earlier work
T. gondii tachyzoites [2] = experiment: Immunofluorescence microscopy of treated tachyzoites (aberrant cell division, rhoptry morphology); conditions: 24 h; for Effect on tachyzoite morphology and cell division (fluorescence microscopy): 125 nM; for Vacuoles with aberrant parasites: […] (250 nM)
Procedure: Rabbit anti-IMC1 (1:1000) and anti-ARO (1:1000) (kindly provided by Dr. Dominique Soldati, Universite de Geneve, Switzerland) were used to label the mother cell and daughter cell pellicles throughout the endodyogeny process and rhoptries, respectively. Mouse anti-SAG1 (1:200; kindly donated by Dr. Tiago Mineo, Universidade Federal de Uberlândia) was used to label the parasite plasma membrane. DAPI (2 µg/mL; Sigma-Aldrich, St. Louis, MO, USA) was used to label the DNA. […] After labeling with antibodies, the coverslips were mounted onto slides using Prolong gold (Life Technologies), and samples were examined on a Zeiss Axio Observer Z1 microscope (Baden-Württemberg, Germany) or Olympus BX60 microscope (Shinjuku City, Tokyo, Japan).

[3] = system: Toxoplasma gondii tachyzoites of the RH strain; conditions: 7 days of treatment
[4] = system: Toxoplasma gondii tachyzoites of the RH strain; experiment: microbe, parasite or virus in culture; assay type: cell-based; conditions: for activity at 0.5 µM: 500 nM; for activity at […]: 250 nM
T. gondii tachyzoites [5] = conditions: read-out: IC50 against T. gondii, cited from earlier work
T. gondii tachyzoites [6] = experiment: Transmission electron microscopy of treated tachyzoites; assay type: cell-based, Toxoplasma gondii
Procedure: NHDF cultures infected with T. gondii were treated with compounds and fixed with 2.5% glutaraldehyde (EM Grade—Ted Pella Inc., Redding, CA, USA) in 0.1 M sodium cacodylate buffer pH 7.4 (Ted Pella Inc.). Cells were post-fixed with 1% osmium tetroxide, 1.25% potassium ferrocyanide, and 5 mM CaCl2, in 0.1 M sodium cacodylate buffer (pH 7.4). The sample fixation and processing for microscopy were performed as previously described. Samples were dehydrated in alcohol solutions of increasing concentrations (35–100%) and embedded in epoxy resin (Polybed 812, Polysciences). Ultrathin sections were collected in copper grids 300 mesh (Ted Pella Inc.), stained with uranyl acetate and lead citrate, and then observed in a Fei TecNai G2 120 kV Spirit Electron Microscope (FEI Company, Eindhoven, The Netherlands).

T. gondii = conditions: in vivo administration, murine model of chronic toxoplasmosis; ref [23],[24]; cited from earlier work
[7] = set-up: method as in Table S3 supplementary ref 30; conditions: Rat and Monkey; ref Table S3 supplementary ref 30; cited from earlier work
[8] = Rat, cited from earlier work; for Cmax: read-out: Plasma concentration (Cmax)
[9] = system: Toxoplasma gondii tachyzoites of the RH strain; experiment: microbe, parasite or virus in culture; conditions: 168 h
[10] = cited from earlier work; remark: listed apart in the source
in vitro = conditions: human
[11] = in vivo; cited from earlier work
[12] = cited from earlier work; remark: listed apart in the source
[13] = cited from earlier work; remark: listed apart in the source
[14] = Cytotoxicity assay in NHDF cells (MTS); conditions: human
[15] = estimated; ref [66]; cited from earlier work
[16] = set-up: method as in Table S3 supplementary ref 2; conditions: Mouse and Rat; ref Table S3 supplementary ref 2; cited from earlier work
[17] = Rat; ref Table S3 supplementary ref 3; cited from earlier work
[18] = Human, ref Table S3 supplementary refs 1, 4, 8, 11, 13, 15, 17, 18, 19, 23, 31
[19] = read-out: Plasma concentration (Cmax), Human, ref Table S3 supplementary refs 1, 4, 8, 11, 13, 15, 17, 18, 19, 23
[20] = read-out: IC50 (μM) in Tachyzoites, RH strain in NHDF cells, plaque assay
[21] = Toxoplasma gondii, 1000 nM, 24 h of treatment, read-out: Proliferation index (%)
[22] = NHDF, read-out: IC50 (μM) in Tachyzoites, RH strain in NHDF cells, plaque assay, 7 days of treatment
[23] = published in vivo studies, ref Table S3
[24] = Toxoplasma gondii, 24 h of treatment, read-out: Proliferation index (%)
[25] = read-out: IC50 against T. gondii proliferation, RH strain, 7 days of treatment

Compound: C=CCNc1nc(NCC=C)nc(N2CCN(C(c3ccc(F)cc3)c3ccc(F)cc3)CC2)n1 [Almitrine]
- Plasma concentration (Cmax) [1, 18]: 286.2 ng/mL
- Cmax [1, 19]: 599 nM and ≤ 599 nM
- Vacuoles containing tachyzoites with cell division alteration (T. gondii tachyzoites [2]; 1 µM, IMC1 and DAPI labeling): 23.9%
- IC50 [3, 20]: 0.33 ± 0.04 µM
- inhibition at 1 µM ([4]; Toxoplasma gondii, 1000 nM, 24 h, read-out: Inhibition of parasite proliferation): 55 to 60%
- activity at 1 µM [4, 21]: 44.1%
- IC50 (T. gondii tachyzoites [5]; 72 h of treatment, ref [23],[24]): 0.42 µM and 0.32 µM
- Effect on T. gondii ultrastructure (TEM) (T. gondii tachyzoites [6]; 1 µM, 48 h): induced myelin-like structures
- Effect on the number of cysts (T. gondii): reduced the number of cysts

Compound: CNC(=O)c1cc(Oc2ccc(NC(=O)Nc3ccc(Cl)c(C(F)(F)F)c3)cc2)ccn1 [Sorafenib]
- Does it cross the blood-brain barrier or is found in the brain? [7]: Yes
- Plasma concentration (Cmax) [1, 18]: 1001.3 ng/mL
- Cmax ([1]; read-out: Plasma concentration (Cmax), Human, ref Table S3 supplementary refs 20, 22, 25, 31): 2200 nM
- Plasma concentration (Cmax) ([8]; ref Table S3 supplementary ref 29): 2410 ng/mL
- Cmax ([8]; ref Table S3 supplementary refs 21, 29): 5200 nM
- IC50 [9, 22]: 0.56 ± 0.03 µM
- Brain availability [10, 23]: confirmed

Compound: CNC(=O)c1cc(Oc2ccc(NC(=O)Nc3ccc(Cl)c(C(F)(F)F)c3)c(F)c2)ccn1 [Regorafenib]
- CC50 at 7 days (in vitro): 3.03 ± 0.01 µM
- selectivity ratio at 7 days (in vitro): 12
- Cmax ([1]; human, in vivo): 3900 nM
- Plasma concentration (Cmax) ([1]; human, in vivo): 1900 ng/mL
- IC50 [9, 22]: 0.25 ± 0.04 µM
- Does it cross the blood-brain barrier or is found in the brain? [11]: Yes
- Brain availability ([10]; in vivo): confirmed

Compound: Cc1cccc(/C=N/Nc2cc(N3CCOCC3)nc(OCCc3ccccn3)n2)c1 [Apilimod]
- CC50 at 7 days (in vitro): 2.12 ± 0.12 µM
- selectivity ratio at 7 days (in vitro): 10
- Cmax ([12]; mouse, in vivo): 2530 nM
- Does it cross the blood-brain barrier or is found in the brain? ([13]; mouse, in vivo): Yes
- Inhibition of parasite proliferation, in words ([4]; 0.5–1 µM, 24 h): modest inhibition
- activity at 0.5 µM [4, 24]: 99.7%
- activity at 1 µM [4, 21]: 73.2%
- IC50 [9, 22]: 0.22 ± 0.06 µM
- Brain availability ([10]; in vivo): confirmed

Compound: CC[C@@H](C(=O)[C@@H](C)[C@@H](O)[C@H](C)[C@@H]1O[C@@H]([C@@H](CC)C(=O)O)CC[C@@H]1C)[C@H]1O[C@]2(C=C[C@@H](O)[C@]3(CC[C@@](C)([C@H]4CC[C@](O)(CC)[C@H](C)O4)O3)O2)[C@H](C)C[C@@H]1C [Salinomycin]
- CC50 at 7 days (in vitro): 1.14 ± 0.17 µM
- selectivity ratio at 7 days (in vitro): 16
- Plasma concentration (Cmax) ([12]; Mice, ref Table S3 supplementary ref 27): 13.2 ng/mL
- Cmax ([12]; read-out: Plasma concentration (Cmax), Mouse/Mice, ref Table S3 supplementary refs 16, 27): 17.6 nM
- Plasma concentration (Cmax) ([8]; ref Table S3 supplementary refs 28, 32): 40 ng/mL
- Cmax ([8]; ref Table S3 supplementary refs 3, 10, 12, 28, 32): 53.3 nM
- Effect on tachyzoite morphology and cell division (fluorescence microscopy) (T. gondii tachyzoites [2]): vacuoles containing fragmented parasites
- Does it cross the blood-brain barrier or is found in the brain? ([13]; Mice/Mouse, ref Table S3 supplementary refs 6, 16, 24, 27, 33): Yes
- activity at 0.0312 µM ([4]; Toxoplasma gondii, 31.2 nM, 24 h of treatment, read-out: Proliferation index (%)): 79.1%
- activity at 0.0625 µM ([4]; Toxoplasma gondii, 62.5 nM, 24 h of treatment, read-out: Proliferation index (%)): 21.9%
- activity at 0.125 µM ([4]; Toxoplasma gondii, 125 nM, 24 h of treatment, read-out: Proliferation index (%)): 14.4%
- inhibition at […] ([4]; Toxoplasma gondii, […] nM ([…] µM), 24 h, read-out: Inhibition of parasite proliferation): > 90%
- activity at […] [4, 24]: 6.38%
- IC50 [9, 25]: < 0.1 µM
- IC50 [9, 22]: 0.07 ± 0.01 µM
- Effect on T. gondii ultrastructure (TEM) (T. gondii tachyzoites [6]; 125 and […] nM, 24 h): extensive vacuolization process
- Brain availability [10, 23]: confirmed

Compound: Nc1nc(Nc2ccc3c(c2)CC[C@@H](N2CCCC2)CC3)nn1-c1cc2c(nn1)-c1ccccc1CCC2 [Bemcentinib]
- CC50 at 7 days (in vitro): 0.97 ± 0.15 µM
- selectivity ratio at 7 days (in vitro): 6
- Cmax ([1]; human, in vivo): 105 nM
- Plasma concentration (Cmax) ([1]; human, in vivo): 53 ng/mL
- IC50 [9, 22]: 0.15 ± 0.03 µM
- Does it cross the blood-brain barrier or is found in the brain? [11]: Yes
- Brain availability ([10]; in vivo): confirmed

Compound: CO[C@@H]1[C@H](N(C)C(=O)c2ccccc2)C[C@H]2O[C@]1(C)n1c3ccccc3c3c4c(c5c6ccccc6n2c5c31)C(=O)NC4 [Midostaurin]
- CC50 at 7 days [14]: 0.24 ± 0.02 µM
- Plasma concentration (Cmax) [1, 18]: 1210 ng/mL
- Cmax [1, 19]: 2120 nM
- Vacuoles with aberrant parasites (T. gondii tachyzoites [2]): more than 80%
- Vacuoles with aberrant parasites (T. gondii tachyzoites [2]; listed as midostaurin): around 80%
- activity at […] [4, 24]: 23.1%
- activity at 0.5 µM [4, 24]: 24.3%
- activity at 1 µM [4, 21]: 24.9%
- IC50 [9, 22]: 0.08 µM
- Effect on T. gondii ultrastructure (TEM) (T. gondii tachyzoites [6]; 250 µM as printed, 48 h): drastic effects on the parasite ultrastructure
- Oral bioavailability [15]: > 90%

Compound: CCN1CCN(Cc2ccc(Nc3ncc(F)c(-c4cc(F)c5nc(C)n(C(C)C)c5c4)n3)nc2)CC1 [Abemaciclib]
- Plasma concentration (Cmax) [1, 18]: 492 ng/mL
- Cmax [1, 19]: 971 nM
- Does it cross the blood-brain barrier or is found in the brain? [16]: Yes
- IC50 [9, 25]: < 0.1 µM
- IC50 [9, 22]: 0.09 ± 0.01 µM
- Brain availability [10, 23]: confirmed

Compound: COc1ccc(C[C@H]2NC[C@H](O)[C@H]2OC(C)=O)cc1 [(-)-Anisomycin]
- Plasma concentration (Cmax) ([8]; ref Table S3 supplementary refs 3, 10, 12, 21): 2.75 ng/mL
- PVs with parasites with aberrant division (T. gondii tachyzoites [2]; 62.5 nM, IMC1 and DAPI labeling): 22.5%
- Effect on tachyzoite morphology and cell division (fluorescence microscopy) (T. gondii tachyzoites [2]): complete arrestment of cell division
- Does it cross the blood-brain barrier or is found in the brain? [17]: Yes
- IC50 [3, 20]: 0.02 µM
- IC50 ([3]; read-out: IC50 against T. gondii proliferation, RH strain): ≤ 0.03 µM
- Proliferation index (%) ([4]; 62.5 nM, 24 h of treatment): 60.56%
- Proliferation index (%) ([4]; 125 nM, 24 h of treatment): 22.63%
- IC50 (T. gondii tachyzoites [5]; 48 h of treatment, ref Fichera, Bhopale, and Ross (1995) [43]): 0.01 µM
- Effect on T. gondii ultrastructure (TEM) (T. gondii tachyzoites [6]; 100 nM, 48 h): alteration of the ER architecture
- Brain availability [10, 23]: confirmed
